Source: patent US20050209295A1, “Methimazole derivatives and tautomeric cyclic thiones to inhibit cell adhesion” (priority 2004, published 2005)

Key:
Format in all cases: cell-based, human
VCAM-1 = assay: TNF-alpha-induced VCAM-1 RNA levels in aortic endothelial cells (Northern blot); details: aortic endothelial cells, mean ± SD
Experimental: (§1) Cell culture and treatment of HAEC: Human aortic endothelial cells (HAEC; Cambrex Bio Science Walkersville, Inc., Walkersville, Md.) are cultured in M199 supplemented with 8% FBS, 100 μg/ml heparin, 10 ng/ml endothelial growth factor, 100 μg/ml hypothalamus extract, 2 mM L-glutamine, 1% non-essential amino acids, 100 units/ml penicillin and 100 μg/ml streptomycin. HAEC are subcultured on gelatin pre-coated: 96-well tissue culture plates (Corning Incorporated; Corning, N.Y.) for viability assays and ELISA; 100-mm tissue culture dishes (BD Falcon; Franklin Lakes, N.J.) for Northern blot analyses, Western blot analyses and EMSA; 35-mm tissue culture dishes (Corning) for adhesion assays and on 24-well tissue culture plates for luciferase promoter assays (BD Falcon). All experiments are performed with confluent HAEC monolayers. Unless noted otherwise, HAEC are treated with 25 ng/ml TNF-α, in the absence or presence of C-10 or 0.25% DMSO (carrier control for C-10), for 2-24 hrs. The concentration of DMSO is held constant at 0.25% (unless indicated otherwise) for all of the C-10 conditions.
(§2) HAEC are washed with PBS and total RNA extracted using a commercial kit (RNeasy Mini Kit; Qiagen Inc.; Valencia, Calif.). 12 μg of total RNA per lane is resolved on 1% denaturing agarose gels containing 0.66M formaldehyde. Gels are capillary blotted on Nytran membranes (Schleicher and Schuell Inc.; Keene, N.H.), UV cross-linked, and used for hybridization. The probe for IRF-1 has been previously described (33). The G3PDH cDNA is from Clontech (Palo Alto, Calif.). […]; cDNAs are labeled with α-^32P-dCTP using the Ladderman Labeling Kit (Takara Biochemical Inc.; Berkeley, Calif.) (33). Northern blots are developed using a BAS 1500 Bioimaging Analyzer (Fuji Photo Film Co., Ltd. Medical Systems USA Inc.; Stanford, Calif.). Each experiment is replicated at least twice.

VCAM-1 promoter = assay: TNF-alpha-induced VCAM-1 promoter activity, dual luciferase reporter assay in HAEC; details: hVCAM-1(−228 to +12)-luciferase construct, mean ± SD; for inhibition at 5000 µM: Homo sapiens
Experimental: as §1
Dual Luciferase Assay: Four human VCAM-1 promoter deletion constructs of different length, −1641/+12, −288/+12, −228/+12, −85/+12 bp are amplified by PCR from human genomic DNA. Each upstream primer contained a restriction endonuclease Mlu I site located at the 5′-end of the primer. The downstream primer corresponding to the +12 end contained a restriction endonuclease Xho I site at the 5′-end. The PCR products are digested by Mlu I and Xho I (New England Biolabs Inc., Beverly, Mass.) and ligated into a similarly digested pGL3 basic luciferase reporter vector (Promega, Madison, Wis.). Cells are transfected for 24 hrs. with 400 ng of indicated constructs, or pGL3 basic luciferase reporter vector as control, using GeneJuice transfection reagent (Novagen Inc., Madison, Wis.). All cells are also transfected with phRL-TK (Int−) vector (Promega), which contains wildtype Renilla luciferase (Rluc) as an “internal” transfection control. Luciferase assays are conducted with the Dual-Luciferase Reporter Assay System (Promega) on a Lumat LB 9507 tube luminometer. In every experiment, each condition is run in triplicate wells. Each experiment is replicated at least twice.

IRF-1 [1] = assay: TNF-alpha-induced IRF-1 RNA levels (Northern blot); details: mean ± SD
Experimental: as §1, §2

IRF-1 [2] = assay: TNF-alpha-induced IRF-1 protein levels (Western blot); details: mean ± SD
Experimental: as §1
Western blot analysis: Whole cell lysates are prepared in lysis buffer (150 mM NaCl, 1% IGEPAL CA-630, 50 mM Tris-HCL pH 8.0). 20 μg of lysates are then resolved on 4-12% Bis-Tris PAGE gels under denaturing conditions using the NuPAGE Bis-Tris System (Invitrogen; Carlsbad, Calif.). Proteins are transferred to nitrocellulose membranes, which are probed with IRF-1 antibody. Subsequent binding of HRP conjugated goat anti-rabbit Ab (sc-2054, Santa Cruz Biotechnology, Inc.) is detected using Lumigen PS-3 detection reagents (Amersham Pharmacia Biotech.; Piscataway, N.J.).

| Compound | % INHIBITION of TNF-alpha-induced VCAM-1 RNA levels (VCAM-1; 5.0 mM) | % INHIBITION of TNF-alpha-induced VCAM-1 promoter activity (VCAM-1 promoter; 10 :M) | % INHIBITION of TNF-alpha-induced VCAM-1 promoter activity (VCAM-1 promoter; 100 :M) | inhibition at 5000 µM (VCAM-1 promoter; 5.0 mM) | % INHIBITION of TNF-alpha-induced VCAM-1 RNA levels (VCAM-1; 10 :M) | % INHIBITION of TNF-alpha-induced VCAM-1 RNA levels (VCAM-1; 100 :M) | % INIHIBITION of TNF-alpha-induced IRF-1 RNA levels (IRF-1 [1]; 5 mM) | % INIHIBITION of TNF-alpha-induced IRF-1 RNA levels (IRF-1 [1]; 10 :M) | % INIHIBITION of TNF-alpha-induced IRF-1 RNA levels (IRF-1 [1]; 100 :M) | % INHIBITION of TNF-alpha-induced IRF-1 Protein levels (IRF-1 [2]; 10 :M) | % INHIBITION of TNF-alpha-induced IRF-1 Protein levels (IRF-1 [2]; 100 :M) | inhibition at 5000 µM (IRF-1 [2]; Homo sapiens, 5 mM) | % INHIBITION of TNF-alpha-induced IRF-1 Protein levels (IRF-1 [2]; 5 mM) | % INHIBITION of TNF-alpha-induced VCAM-1 promoter activity (VCAM-1 promoter; 5.0 mM) |
| --- | --- | --- | --- | --- | --- | --- | --- | --- | --- | --- | --- | --- | --- | --- |
| Cc1ccc2[nH]c(S)nc2c1 [2-mercapto-5-methylbenzimididazole, 2-Mercapto-5-methylbenzimidazole] | 11 ± 7% | – | – | – | – | – | – | – | – | – | – | – | – | – |
| Cc1cnc(S)n1C [5-methylmethimazole, 5-Methylmethimazole] | – | 0% | 0% | 14 ± 8% | – | – | – | – | – | – | – | – | – | – |
| Cn1ccnc1S [Methimazole, 1-Methylimidazole-2-thiol] | 20 ± 10% | – | – | 0% | 0% | 0% | 27 ± 12% | 0% | 0% | 0% | 0% | 17 ± 6% | – | – |
| 1-Methyl-2-Thiomethyl-5(4)nitroimidazole | 92 ± 5% | 29 ± 6% | 54 ± 10% | – | 34 ± 6% | 83 ± 10% | 95 ± 12% | 26 ± 12% | 64 ± 16% | 46 ± 15% | 69 ± 10% | – | 95 ± 12% | 58 ± 6% |
| Sc1nc2ccccc2[nH]1 [2-mercaptobenzimidazole, 2-Mercaptobenzimidazole] | 26 ± 10% | 0% | 0% | 30 ± 4% | 0% | 0% | – | – | – | – | – | – | – | – |
| Sc1ncc[nH]1 [2-mercaptoimidazole, 2-Mercaptoimidazole] | None | – | – | 0% | None | None | 0% | 0% | 0% | – | – | – | – | – |
| Cn1ccn(C)c1=S [N-methylmethimazole, N-Methylmethimazole] | 47 ± 12% | 6 ± 2% | 44 ± 11% | 31 ± 3% | 0% | 31 ± 10% | 75 ± 14% | 0% | 34 ± 15% | – | – | – | – | – |
